Experimental findings from patent publication US9282759B2, “Composition including an unsaponifiable fraction” (LABORATOIRES EXPANSCIENCE, priority 2009, dated 2016) are described below.

In the experiment the test system is PGE2 production of arthrosis chondrocytes. The experiment in a line: PGE2 production of arthrosis chondrocytes (radioimmunoassay of culture media, per μg DNA). The format is cell-based, human. To be noted: 10 μg/ml of the composition in culture medium, 48 h, chondrocytes of osteoarthritis patients, compared with basal conditions (9±4 pg PGE2 per μg DNA). As to the method: Thin slices of cartilage of patients suffering from osteoarthritis were excised while avoiding the calcified layer. They were washed several times in DMEM medium containing HEPES, penicillin and streptomycin. The slices of cartilage were then cut into small fragments of a few cubic millimeters.
Chondrocytes were then isolated from the extracellular matrix by a succession of enzymatic digestions. The cartilage fragments were incubated at 37° C. under constant agitation in the basic medium with, successively, hyaluronidase, pronase E and finally with clostridial collagenase.
The cells were then filtered through a 70 μm nylon membrane, washed with DMEM and counted using a Neubauer plate. […]
The cultures were maintained at 37° C. in an atmosphere of 95% air and 5% CO2. At the end of the incubation period, the culture media were taken and stored at −20° C. until they were analysed. […]
Deoxyribonucleic acid (DNA) was quantified according to the technique of Labarca and Paigen (Labarca C. and Paigen K. A simple, rapid, and sensitive DNA assay procedure, Anal Biochem, 1980. 102: 344-52). This method is based on the principle of fluorescence emitted by a reagent, bis-benzimidazole, when it binds to DNA. […] After 1 h of incubation, the samples were read with a fluorometer using an excitation wavelength of 356 nm and an emission wavelength of 458 nm. […]

vitamin K2 [composition 4]: the “quantity of PGE2 produced” value is listed as “remains constant”.
